Here are results for 1 compound from PMC5896266, “Development of Matrix Metalloproteinase-2 Inhibitors for Cardioprotection” (Frontiers in Pharmacology, 2018).

One test has as its target T1, MMP-1 (Homo sapiens, UniProt P03956).
T1 sequence (P03956 100-469): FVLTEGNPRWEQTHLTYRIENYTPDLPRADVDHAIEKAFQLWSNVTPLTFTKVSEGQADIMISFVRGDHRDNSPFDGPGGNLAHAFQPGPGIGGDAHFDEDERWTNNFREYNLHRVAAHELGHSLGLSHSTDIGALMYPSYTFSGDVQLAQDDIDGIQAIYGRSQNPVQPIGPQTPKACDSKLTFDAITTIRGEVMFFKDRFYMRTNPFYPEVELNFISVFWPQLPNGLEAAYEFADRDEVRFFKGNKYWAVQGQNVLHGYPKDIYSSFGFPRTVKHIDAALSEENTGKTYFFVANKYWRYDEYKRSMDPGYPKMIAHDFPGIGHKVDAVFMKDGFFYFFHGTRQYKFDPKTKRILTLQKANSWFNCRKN
The experiment in a line: MMP-1 inhibition (inhibitory profile). As to conditions: Table 2. It counts as biochemical. As for the experimental part:
(§1) The compounds were measured for MMP-1, 2, 9, 13 to determine their inhibitory profile. Efficiency Index amplifies the two major required effects, selectivity against MMP-1 and the inhibitory activity.

In test [1] the target is T2, Human MMP-2 catalytic domain (Homo sapiens, UniProt P08253, DEL222-396).
T2 construct: Human MMP-2 catalytic domain (residues 110-221, 397-455); made in house
T2 sequence (P08253 with tags, fused parts or gaps DEL222-396 limits assumed): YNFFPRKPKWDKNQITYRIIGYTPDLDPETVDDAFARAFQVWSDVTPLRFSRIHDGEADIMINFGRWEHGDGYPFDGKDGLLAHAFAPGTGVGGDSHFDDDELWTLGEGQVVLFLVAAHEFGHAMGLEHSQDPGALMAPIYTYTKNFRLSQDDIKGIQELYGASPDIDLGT
The test is described as follows: Fluorometric MMP-2 inhibition assay (MTS), catalytic domain. The format is biochemical. As for the experimental part:
In vitro MMP-2 activity was then measured, using a fluorometric assay in a 384 well format. Human MMP-2 catalytic domain (residues 110-221, 397-455) (Feng et al., [2000]) was expressed in E. coli in form of inclusion bodies. The protein was refolded and then purified by means of Ni-NTA affinity and anion exchange chromatography. Inhibition assays were carried out in 50 mM Tris, 5 mM CaCl2, 300 mM NaCl, 20 μM ZnSO4, pH = 7.5 buffer. For inhibition studies the catalytic domain of the enzyme was pre-incubated with varying amount of inhibitor for 30 min. […] After 1 h incubation at 37°C the fluorescence was detected using a Wallac 1420 Victor2 microplate reader at 320 nm/405 nm Ex/Em wavelength. As an alternative substrate we also used 5-FAM-Pro-Leu-Gly-Leu-Dap(QXL™ 520)-Ala-Arg-NH2, where the fluorescence was detected at 485 nm/520 nm. For each inhibitor candidate, the percentage of inhibition was determined in duplicate experiments at six inhibitor concentrations, chosen to observe a 5–95% range of inhibition.
Since hydroxamic acids are reported as the primary zinc-binding motif, we intended to select such a library from the AMRI 200,000 member non-exclusive compound repository as a starting point of our drug discovery efforts. Since only a few compounds were available in the repository as hydroxamic acids and the conversion of acids to hydroxamic acids were not applicable to HT parallel synthesis, we decided first to select free acids from the AMRI's compound collection. […] The selected acids were screened in a fluorescent assay using a recombinant human MMP-2 catalytic fragment and a synthetic peptide substrate. […] The hydroxamic acid pairs of the previously measured acids were then tested.

Another test has as its target MMP-13 (Homo sapiens, UniProt P45452). The test is described as follows: MMP-13 inhibition (inhibitory profile). It counts as biochemical. As to conditions: Table 2. As for the experimental part: as §1
Test [2] concerns neonatal rat cardiac myocytes. The experiment in a line: Cell viability of neonatal rat cardiac myocytes subjected to simulated ischemia/reperfusion. The format is cell-based. The following applies: comparison among the tested lead candidates. As for the experimental part: For our cell viability experiments, 3 day-old cardiomyocytes plated onto 24-well plates were tested under normoxic condition or subjected to simulated ischemia (SI). The normoxic cardiomyocytes were kept under normoxic conditions, i.e., the growth medium was changed to a normoxic solution (in mM: NaCl 125, KCl 5.4, NaH2PO4 1.2, MgCl2 0.5, HEPES 20, glucose 15, taurine 5, CaCl2 1, creatine 2.5, BSA 0.1%, pH 7.4, 310 mOsm/l) (Li et al., [2004]) and the cells were incubated under 95% air and 5% CO2 at 37°C for 2.5 h. […] The cells were then subjected to the following treatments during SI or normoxic protocol: vehicle control or MMP inhibitors at different doses calculated according to IC doses in vitro. […]
Figure 3 Experimental protocol for cell culture studies and for the ex vivo rat heart model of AMI. […] At the end of the reperfusion, cell viability was determined by using calcein flurescence. […] Subsequently, 2 h reperfusion was applied and then infarct size was determined. […]
Cell viability was assessed by a calcein and propidium iodine assay performed in each group after 2 h reoxygenation. […] Then the calcein solution was replaced with fresh PBS and the fluorescence intensity of each well was detected by a fluorescent plate reader (FluoStar Optima, BMG Labtech, Ortenberg, Germany). […]

With `O=C(O)c1c[nH]c(CN(Cc2ccc(F)cc2)Cc2ccc(OCc3ccccc3)cc2)n1` [MMPI-1154], the IC50 against MMP-1 worked out at 10 µM; in test [1] (Table 2), 6.6 µM; at MMP-13, 1.8 µM. In addition, the “selectivity over MMP-1” value in test [1] (MMP-2 vs MMP-1, Table 2 values) amounted to 1.5 fold. In test [2], the “increase in cell viability during simulated I/R” value is listed as “highest increase in cell viability”.
